Here are results for twelve compounds from patent publication US9534008B2, “Small molecule compounds that control plant- and insect-pathogenic nematodes” (California Institute of Technology, priority 2011, dated 2017).

The subject of assay [1] is Meloidogyne javanica, M. floridensis, M. incognita, M. hapla. Briefly: Ascaroside function (Table 12), root-knot nematodes. Type of assay: in vivo, Meloidogyne spp. Particulars: for Dispersal (of dauer larvae, infectious juveniles) / Repel Females/Herm.: Meloidogyne javanica, M. floridensis, M. incognita, M. hapla, entries marked *; for act as dispersants and repellants in Meloidogyne species: alone, in concert, and/or in concert with ascr#9 or other ascarosides. How it is done:
(§1) Various ascarosides and ascaroside blends were administered to various nematodes described below (Table 12). […] A very strong result of affecting nematode behavior is designated in the table as “strong.”

In the next assay the test system is C. elegans. Briefly: Ascaroside function (Table 12), C. elegans. Type of assay: in vivo, Caenorhabditis elegans. Details: key to Attract Females/Herm. / Promote Dauer Formation / Attract Males: A very strong result of affecting nematode behavior is designated in the table as “strong.”. How it is done:
as §1

Assay [2] deals with C. elegans hermaphrodites and males. Briefly: Spot attraction assay. Type of assay: in vivo. How it is done:
The spot attraction assays were conducted according to a previously reported method (Pungaliya et al., PNAS 106:7708-13 (2009); Srinivasan et al., Nature 454:1115-18 (2008), which are hereby incorporated by reference in their entirety). For both C. elegans hermaphrodites and males, 50-60 worms were harvested daily at the fourth larval stage (L4) and stored segregatedly by sex at 20° C. overnight, to be used as young adults the following day. For the competition experiments, two conditions were used: 120 nM ascr#3 and 10 nM icas#3 (Condition 1), or 12 μM ascr#3 and 1 μM icas#3 (Condition 2) in water containing 10% ethanol. Aliquots were stored at −20° C. in 20 μL tubes. 10% ethanol in water was used as control.
Attraction assays with hbas#3 were conducted as previously reported (Srinivasan et al., Nature 454:1115-18 (2008); Pungaliya et al., Proc. Natl. Acad. Sci. U.S.A. 106:7708-13 (2009), which are hereby incorporated by reference in their entirety). For the attraction assays, 50-60 hermaphrodite worms were harvested daily at the early fourth larval stage (L4) and stored at 20° C. overnight to be used as young adults the following day. Hbas#3 was dissolved in water containing 10% ethanol. Aliquots were stored at −20° C. in 20 μL tubes. 10% ethanol in water was used as control.

The test system of assay [3] is C. elegans hermaphrodites. Briefly: Quadrant chemotaxis assay. Type of assay: in vivo. To be noted: FIGS. 48A-B (spot attraction and quadrant chemotaxis). How it is done: Chemotaxis to both non-indole and indole ascarosides was assessed on 10 cm four-quadrant petri plates (Wicks et al., Dev. Biol. 221:295-307 (2000), which is hereby incorporated by reference in its entirety). Each quadrant was separated from adjacent ones by plastic spacers (FIG. 1B). Pairs of opposite quadrants were filled with nematode growth medium (NGM) agar containing either indole ascarosides or non-indole ascarosides at different concentrations. Animals were washed gently in a S-basal buffer, placed in the center of a four-quadrant plate with ascarosides in alternating quadrants, and scored after 15 minutes and 30 minutes. A chemotaxis index was calculated as: (the number of animals on ascaroside quadrants minus the number of animals on buffer quadrants)/(total number of animals).
Chemotaxis to hbas#3 was assessed on 10 cm four-quadrant petri plates (Wicks et al., Dev. Biol. 221:295-307 (2000), which is hereby incorporated by reference in its entirety). Each quadrant was separated from adjacent ones by plastic spacers. Pairs of opposite quadrants were filled with nematode growth medium (NGM) agar containing different concentrations of hbas#3. Animals were washed gently in an S-basal buffer and placed in the center of a four-quadrant plate with ascarosides in alternating quadrants, and scored after 15 minutes and 30 minutes. A chemotaxis index was calculated as: (the number of animals on ascaroside quadrants minus the number of animals on buffer quadrants)/(total number of animals).

Another assay concerns Panagrellus redivivus. Briefly: Ascaroside function (Table 12), Panagrellus redivivus. Type of assay: in vivo. On the procedure: as §1
Assay [4] has as its system Heterorhabditis bacteriophora, H. zealandica, H. floridensis. Briefly: Ascaroside function (Table 12), Heterorhabditis. To be noted: for Dispersal (of dauer larvae, infectious juveniles) / Repel Females/Herm.: Heterorhabditis bacteriophora, H. zealandica, H. floridensis, entries marked *; for act as dispersants and repellants in Heterorhabditis: alone, in concert, and/or in concert with ascr#9 or other ascarosides. The assay is classed as in vivo, Heterorhabditis spp. How it is done: as §1

For assay [5], the system named is several of the tested nematode species. Briefly: Retention assay, across species. The assay is classed as in vivo. To be noted: 1 nM, 1 μM and 1 mM tested. How it is done: OP50 E. coli was grown on a standard 5 cm agar plate (made with standard Nematode Growth Medium). The bacterial lawn was 16 mm in diameter and was grown overnight at 20° C. before being used in trials. Two 4 mm spots (0.6 μL) were placed on opposite sides of the bacterial lawn (using a transparent template to guide spot placement), and several minutes elapsed for the liquid to settle in before placing nematodes down on the assay. Recording began immediately upon worm placement. 0.6 μL of the control was placed on one side of the lawn, and 0.6 μL of the experimental cue was placed on the other side of the lawn, changing the location of the cue throughout trials between left/right and top/bottom to avoid bias.
Nematodes were isolated by gender at the L4 stage the day before being used in trials as developed adults. Worms were evenly divided and placed at two points equidistant from the foci of the scoring region. Trials were recorded for 20 minutes, and frames were collected for analysis at 1 frame per second. Results were averaged from at least three different trials. For every nematode species in this study, a different total number of worms (using water in both scoring regions) was tested to determine the minimum number of worms necessary for consistent unbiased results over a 20 minute trial. The total number of worms used in the multiple species assays depended on that species' optimal parameters. 10 worms were used for P. redivivus males and females, 20 worms were used for C. elegans males and O. dolichuridae males, and 14 worms were used for S. glaseri males. The Automated Software was used to compare worm occupancy in each scoring region over time, and the Chemotaxis Index (Bargmann et al., Cell 74:515-27 (1993), which is hereby incorporated by reference in its entirety) was adapted to score preference or avoidance to each ascaroside.
A video camera attached to the microscope produced a digital video stream, which was then analyzed. The ratio of the time the average worm spent in each region of interest was calculated for every trial. For ease of implementation, all worms in a single experiment were assumed to be roughly the same size. Thus worm pixels were counted instead of whole worms, allowing fractions of a worm in the region of interest to be taken into account. It also eliminated the need for a shape-based worm identification algorithm, and allowed each frame to be analyzed independently. A band-pass filter was applied to each frame to eliminate the effect of uneven lighting and also accentuate the worms against the background. The worm was then identified after thresholding the filtered image. Throughout each experiment, the locations and sizes of the regions of interest were known. Through the filtering described above, it is known which pixels are occupied by worms and which ones are not. Thus, the ratio of worm-pixels to all pixels inside the region of interest can be calculated to produce the worm-occupancy ratio. This calculation was done for every frame, giving a plot output of worm-occupancy ratio vs. time for each region.

The test system of another assay is S. glaseri. Briefly: Ascaroside function (Table 12), S. glaseri. The assay is classed as in vivo. On the procedure:
as §1

Structures are written as SMILES. Entries after “also recorded” stand apart in the source; their conditions may differ.

With `CC1OC(O[C@H](C)CCCCCCCCCC(=O)O)C(O)CC1O` (some centres unmarked) [ascr#20], in assay [1], the “Dispersal (of dauer larvae, infectious juveniles)” value (from here on “Dispersal”) is reported as “ascr#20*”; the “Repel Females/Herm.” value is “ascr#20*”; the “act as dispersants and repellants in Meloidogyne species” value (from here on “act … in Meloidogyne species”) was “dispersants and repellants”.

In the case of `C[C@H](CCCC/C=C/C(=O)O)O[C@@H]1O[C@@H](C)[C@H](OC(=O)c2ccc(O)cc2)C[C@H]1O` [hbas#3, (8R)-(3′R-Hydroxy-5′R-(4-hydroxybenzoyloxy)-6′S-methyl-(2H)-tetrahydropyran-2′-yloxy)non-(2E)-enoic acid], in the assay on C. elegans, the “Attract Females/Herm.” value was “([very” and the “Attract Males” value was “([strong])”. Also, in assay [2] (dose dependent manner), the “attraction of wild-type (N2) hermaphrodites” value was “attracted”. In assay [3], the “concentration at which C. elegans is strongly attracted (as low as)” value was no more than 10 femtomolar.

For `C[C@@H]1O[C@@H](OCCC(=O)O)[C@H](O)C[C@H]1O` [ascr#5], in the assay with C. elegans, the “Promote Dauer Formation” value was “([strong])” and the “Repel Females/Herm.” value was “ascr#5”.

As to `CC1O[C@@H](OCCCCCCCCC(=O)O)C(O)C[C@H]1O` (stereo partly drawn) [oscr#10, 9-(3′R,5′R-Dihydroxy-6′S-methyl-(2H)-tetrahydropyran-2′-yloxy)nonanoic acid], the “Repel Males” value with Panagrellus redivivus was “oscr#10”.

For `C[C@H](CCCCC(=O)O)O[C@@H]1O[C@@H](C)[C@H](OC(=O)c2c[nH]c3ccccc23)C[C@H]1O` [icas#1], in the assay with C. elegans, the “Attract Females/Herm.” value was “([strong])” and the “Attract Males” value was “([strong])”. In assay [2] (high concentrations, 1 μmol, N2 hermaphrodites and him-5 males), the “attraction of both C. elegans sexes” value is “attractive; also recorded: attracted”.

Consider `CC1OC(O[C@H](C)CCCCCCCCC(=O)O)C(O)CC1O` (some centres unmarked) [ascr#18], for which, in assay [1], the “Dispersal” value is “ascr#18*”; the “Repel Females/Herm.” value is “ascr#18*”; the “act … in Meloidogyne species” value was “dispersants and repellants”. Besides, in assay [4], the “Dispersal” value is “ascr#18*”; the “Repel Females/Herm.” value is reported as “ascr#18*”; the “act as dispersants and repellants in Heterorhabditis” value is “dispersants and repellants”.

Turning to `CC1O[C@@H](O[C@H](C)CCCCCCC(=O)O)C(O)C[C@H]1O` (some centres unmarked) [ascr#10], the “Attract Males” value in the assay with C. elegans, in the assay on S. glaseri and in the assay with Panagrellus redivivus was “ascr#10” in each case. Besides, the “preference for areas conditioned by ascaroside” value in assay [5] is reported as “preferred”. In addition, the “Dispersal” value in assay [1] is “ascr#10*”. Further, the “Repel Females/Herm.” value in assay [1] is on record as “ascr#10*”. Besides, the “act … in Meloidogyne species” value in assay [1] was “dispersants and repellants”.

As to `CC(=O)CC[C@@H](C)O[C@@H]1O[C@@H](C)[C@H](O)C[C@H]1O[C@@H]1O[C@H](CO)[C@@H](O)[C@H](O)[C@H]1O` [ascr#4], the “Promote Dauer Formation” value with C. elegans is recorded as “ascr#4”.

As for `C[C@@H]1O[C@@H](OCCCCC(=O)O)[C@H](O)C[C@H]1O` [oscr#9, 5-(3′R,5′R-Dihydroxy-6′S-methyl-(2H)-tetrahydropyran-2′-yloxy)pentanoic acid], the “Attract Males” value in the assay with Panagrellus redivivus is recorded as “oscr#9”.

Regarding `C[C@H](CCCCCCCCCCC(=O)O)O[C@@H]1O[C@@H](C)[C@H](O)C[C@H]1O` [ascr#22], in assay [1], the “Dispersal” value is reported as “ascr#22*”; the “Repel Females/Herm.” value is given as “ascr#22*”; the “act … in Meloidogyne species” value was “dispersants and repellants”. Moreover, in assay [4], the “Dispersal” value is reported as “ascr#22*”; the “Repel Females/Herm.” value was “ascr#22*”; the “act as dispersants and repellants in Heterorhabditis” value was “dispersants and repellants”.

`CC1OC(O[C@H](C)CCCCCCCC(=O)O)C(O)CC1O` (some centres unmarked) [ascr#16]: in assay [1], the “Dispersal” value was “ascr#16*”; the “Repel Females/Herm.” value is “ascr#16*”; the “act … in Meloidogyne species” value was “dispersants and repellants”.

As for `C[C@H](CC/C=C/C(=O)O)O[C@@H]1O[C@@H](C)[C@H](O)C[C@H]1O` [ascr#7], the “Attract Males” value with C. elegans, in the assay on S. glaseri and in the assay with Panagrellus redivivus was “ascr#7” each time. Moreover, the “preference for areas conditioned by ascaroside” value in assay [5] is on record as “preferred”.
